± gives the standard deviation of the averaged measurements.
Assays:
[1] = compound: NS(=O)(=O)OC[C@@H]1C[C@@H](n2ccc3c(N[C@H]4CCc5ccccc54)ncnc32)C[C@@H]1O [MLN-4924]; assay: surviving fraction relative to DMSO-only wells; higher = less growth inhibition; conditions: exposure time: 5 days
How it was run: (§1)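 Log-phase tumour cell lines, 250–500 cells per well in 384-well plates, received inhibitors at 0.5, 1, 5, 10, 50, 100, 500 and 1000 nM continuously for five days, starting 24 hours after seeding. Viability was quantified with CellTiter-Glo luminescence and normalised to the median of DMSO-only wells to give surviving fraction. Three screens were run per line, and a line stayed in only with replicate Pearson r >0.7 and median Z' >0.3.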

[2] = compound: Oc1nc(-c2ccc(C(F)(F)F)cc2)nc2c1CSCC2 [XAV-939]; assay: as above; conditions: exposure time: 5 days
How it was run: as §1

Test System CCK81 LARGE INTESTINE has a surviving fraction ([1]; 0.5 nM) of 0.87 ± 0.11, a surviving fraction ([1]; 1 nM) of 0.814 ± 0.12 and a surviving fraction ([1]; 5 nM) of 0.704 ± 0.15. The surviving fraction ([1]; 10 nM) was 0.794 ± 0.088, the surviving fraction ([1]; 50 nM) was 0.867 ± 0.07 and the surviving fraction ([1]; 100 nM) was 0.831 ± 0.059. It also gave a surviving fraction ([1]; 500 nM) of 0.567 ± 0.066 and a surviving fraction ([1]; 1000 nM) of 0.473 ± 0.065.
Work on HMT3552 BREAST yielded a surviving fraction ([2]; 0.5 nM) of 1.1, a surviving fraction ([2]; 1 nM) of 1.12 and a surviving fraction ([2]; 5 nM) of 1.1. The surviving fraction ([2]; 10 nM) was 1.02, the surviving fraction ([2]; 50 nM) was 1.18 and the surviving fraction ([2]; 100 nM) was 1.1. It also gave a surviving fraction ([2]; 500 nM) of 1.07, a surviving fraction ([2]; 1000 nM) of 1.09 and a surviving fraction ([1]; 0.5 nM) of 1.04 ± 0.012. It also gave a surviving fraction ([1]; 1 nM) of 1.11 ± 0.054, a surviving fraction ([1]; 5 nM) of 1.11 ± 0.062 and a surviving fraction ([1]; 10 nM) of 1.11 ± 0.032. For the same test system, the surviving fraction ([1]; 50 nM) was 0.458 ± 0.03, the surviving fraction ([1]; 100 nM) was 0.295 ± 0.021 and the surviving fraction ([1]; 500 nM) was 0.154 ± 0.008. The surviving fraction ([1]; 1000 nM) was 0.108 ± 0.0046.
In the case of G292 BONE, the surviving fraction ([2]; 0.5 nM) is reported as 0.788 ± 0.26, the surviving fraction ([2]; 1 nM) is reported as 0.995 ± 0.045 and the surviving fraction ([2]; 5 nM) is reported as 0.96 ± 0.043. It also gave a surviving fraction ([2]; 10 nM) of 0.963 ± 0.066, a surviving fraction ([2]; 50 nM) of 0.818 ± 0.27 and a surviving fraction ([2]; 100 nM) of 0.965 ± 0.04. It also gave a surviving fraction ([2]; 500 nM) of 0.917 ± 0.027, a surviving fraction ([2]; 1000 nM) of 0.874 ± 0.046 and a surviving fraction ([1]; 0.5 nM) of 1.02 ± 0.031. The surviving fraction ([1]; 1 nM) was 1 ± 0.048, the surviving fraction ([1]; 5 nM) was 1.04 ± 0.017 and the surviving fraction ([1]; 10 nM) was 1.03 ± 0.054. The surviving fraction ([1]; 50 nM) was 0.909 ± 0.049, the surviving fraction ([1]; 100 nM) was 0.623 ± 0.068 and the surviving fraction ([1]; 500 nM) was 0.295 ± 0.011. For the same test system, the surviving fraction ([1]; 1000 nM) was 0.266 ± 0.019.
HCC38 BREAST showed a surviving fraction ([2]; 0.5 nM) of 0.824 ± 0.32, a surviving fraction ([2]; 1 nM) of 0.996 ± 0.18 and a surviving fraction ([2]; 5 nM) of 1.01 ± 0.2. The surviving fraction ([2]; 10 nM) was 1.07 ± 0.23, the surviving fraction ([2]; 50 nM) was 0.983 ± 0.034 and the surviving fraction ([2]; 100 nM) was 0.925 ± 0.15. It also gave a surviving fraction ([2]; 500 nM) of 0.895 ± 0.085, a surviving fraction ([2]; 1000 nM) of 0.855 ± 0.12 and a surviving fraction ([1]; 0.5 nM) of 1.35 ± 0.069. For the same test system, the surviving fraction ([1]; 1 nM) was 1.48 ± 0.14, the surviving fraction ([1]; 5 nM) was 1.02 ± 0.14 and the surviving fraction ([1]; 10 nM) was 1.22 ± 0.18. It also gave a surviving fraction ([1]; 50 nM) of 0.624 ± 0.064, a surviving fraction ([1]; 100 nM) of 0.269 ± 0.025 and a surviving fraction ([1]; 500 nM) of 0.0757 ± 0.0075. The surviving fraction ([1]; 1000 nM) was 0.0803 ± 0.013.
HS578T BREAST was tested, and the surviving fraction ([2]; 0.5 nM) was 1.16 ± 0.15, the surviving fraction ([2]; 1 nM) was 1.03 ± 0.2 and the surviving fraction ([2]; 5 nM) was 1.14 ± 0.064. It also gave a surviving fraction ([2]; 10 nM) of 1.33 ± 0.062, a surviving fraction ([2]; 50 nM) of 1.14 ± 0.13 and a surviving fraction ([2]; 100 nM) of 1.21 ± 0.058. For the same test system, the surviving fraction ([2]; 500 nM) was 1.09 ± 0.069, the surviving fraction ([2]; 1000 nM) was 0.972 ± 0.016 and the surviving fraction ([1]; 0.5 nM) was 0.822 ± 0.14. The surviving fraction ([1]; 1 nM) was 0.96 ± 0.14, the surviving fraction ([1]; 5 nM) was 0.898 ± 0.05 and the surviving fraction ([1]; 10 nM) was 0.957 ± 0.11. The surviving fraction ([1]; 50 nM) was 0.63 ± 0.021, the surviving fraction ([1]; 100 nM) was 0.494 ± 0.037 and the surviving fraction ([1]; 500 nM) was 0.342 ± 0.04. The surviving fraction ([1]; 1000 nM) was 0.326 ± 0.057.
HMLE3 BREAST showed a surviving fraction ([2]; 0.5 nM) of 0.921 ± 0.048, a surviving fraction ([2]; 1 nM) of 0.956 ± 0.028 and a surviving fraction ([2]; 5 nM) of 0.97 ± 0.036. It also gave a surviving fraction ([2]; 10 nM) of 0.969 ± 0.059, a surviving fraction ([2]; 50 nM) of 0.986 ± 0.047 and a surviving fraction ([2]; 100 nM) of 0.984 ± 0.078. It also gave a surviving fraction ([2]; 500 nM) of 0.775 ± 0.054, a surviving fraction ([2]; 1000 nM) of 0.734 ± 0.037 and a surviving fraction ([1]; 0.5 nM) of 1.04 ± 0.046. For the same test system, the surviving fraction ([1]; 1 nM) was 1.08 ± 0.031, the surviving fraction ([1]; 5 nM) was 1.07 ± 0.016 and the surviving fraction ([1]; 10 nM) was 1.25 ± 0.019. For the same test system, the surviving fraction ([1]; 50 nM) was 1.07 ± 0.016, the surviving fraction ([1]; 100 nM) was 0.698 ± 0.024 and the surviving fraction ([1]; 500 nM) was 0.175 ± 0.017. The surviving fraction ([1]; 1000 nM) was 0.114 ± 0.025.
Work on HS57T BREAST yielded a surviving fraction ([2]; 0.5 nM) of 1.07 ± 0.023, a surviving fraction ([2]; 1 nM) of 1.11 ± 0.083 and a surviving fraction ([2]; 5 nM) of 1.06 ± 0.039. For the same test system, the surviving fraction ([2]; 10 nM) was 1.02 ± 0.057, the surviving fraction ([2]; 50 nM) was 1.09 ± 0.046 and the surviving fraction ([2]; 100 nM) was 1.054 ± 0.0092. The surviving fraction ([2]; 500 nM) was 0.889 ± 0.017, the surviving fraction ([2]; 1000 nM) was 0.843 ± 0.075 and the surviving fraction ([1]; 0.5 nM) was 0.977 ± 0.059. For the same test system, the surviving fraction ([1]; 1 nM) was 0.977 ± 0.069, the surviving fraction ([1]; 5 nM) was 1.02 ± 0.064 and the surviving fraction ([1]; 10 nM) was 1.01 ± 0.07. The surviving fraction ([1]; 50 nM) was 0.783 ± 0.093, the surviving fraction ([1]; 100 nM) was 0.523 ± 0.021 and the surviving fraction ([1]; 500 nM) was 0.139 ± 0.015. The surviving fraction ([1]; 1000 nM) was 0.106 ± 0.0065.
Work on HCC70 BREAST yielded a surviving fraction ([2]; 0.5 nM) of 1.02 ± 0.083, a surviving fraction ([2]; 1 nM) of 1.09 ± 0.11 and a surviving fraction ([2]; 5 nM) of 1.07 ± 0.026. It also gave a surviving fraction ([2]; 10 nM) of 1.13 ± 0.067, a surviving fraction ([2]; 50 nM) of 1.13 ± 0.029 and a surviving fraction ([2]; 100 nM) of 1.12 ± 0.11. For the same test system, the surviving fraction ([2]; 500 nM) was 0.871 ± 0.091, the surviving fraction ([2]; 1000 nM) was 0.829 ± 0.12 and the surviving fraction ([1]; 0.5 nM) was 1.06 ± 0.14. It also gave a surviving fraction ([1]; 1 nM) of 1.09 ± 0.06, a surviving fraction ([1]; 5 nM) of 1.07 ± 0.066 and a surviving fraction ([1]; 10 nM) of 0.96 ± 0.071. The surviving fraction ([1]; 50 nM) was 0.582 ± 0.041, the surviving fraction ([1]; 100 nM) was 0.41 ± 0.029 and the surviving fraction ([1]; 500 nM) was 0.14 ± 0.037. For the same test system, the surviving fraction ([1]; 1000 nM) was 0.103 ± 0.014.
